Type in all cases: in vivo
In one data set the test system is Euschistus heros. The experiment in a line: Brown stink bug test on sprayed soybean seedlings of Intacta and BMX-Potencia. The following applies: 100 ppm, 6 days after application; for efficacy on soybean with Bacillus thuringiensis toxin trait (INTACTA) versus soybean without the trait (BMX-POTENCIA): sprayed seedlings; for mortality (corrected according to Abbott): sprayed soybean seedlings of Intacta and BMX-Potencia, adults. As for the experimental part:
Brown Stink Bug (Euschistus heros)
The active compound is dissolved at the desired concentration in a mixture of 1:1 (vol:vol) distilled water:acetone. Soybean seedlings of Intacta and BMX-Potencia with one pair of true leaves were sprayed 10 with 2 ml solution using an airbrush. After dry, the plants in small pots were placed inside a transparent plastic cage and infested with 10 adults adult stage individuals. Treated cups were kept at about 25° C. Percent mortality was recorded after 6 days after application. […] Entomal., 18 (1925) 265-267.

The next data set concerns Halyomorpha halys. The experiment in a line: Brown marmorated stink bug spray test on soybean seeds in cups. Conditions: 300 ppm, adults on soybean seeds, 5 days after treatment. As for the experimental part:
Halyomorpha halys (Brown Marmorated Stink Bug)
For evaluating control of Halyomorpha halys the active compound is dissolved at the desired concentration in a mixture of 1:1 (vol:vol) distilled water:acetone with 0.005% (v/v) of Tween 20 added as surfactant. Soybean seeds are placed in a small petri dish inside a plastic cup 10 adults (5 females and 5 males) are introduced into each cup. Using an airbrush sprayer, 1 mL solution was sprayed directly inside the cups with bean pods. After drying, a water source (wet cotton in a small petri dish) is placed in each cup, and the cups closed with ventilated cover. All cups held under constant temperature of 20° C., 16L:8D photoperiod. Live insects are counted at 5 days after treatment.

A further data set has as its system Nezara viridula. The experiment in a line: Green soldier stink bug soil drench test on lima bean plants. The following applies: 250 g ai/ha, 2nd instar nymphs infested 3 days after treatment, read 4 days after infestation. The protocol:
Green Soldier Stink Bug (Nezara viridula)
Lima Bean (Phaseolus lunatus, ‘Henderson Bush,’ Lot #—VR06650) plants were transplanted at the two true-leaf stage into 25.8 cm2 pots filled with sifted (No. 10 sieve). Pots were held in the greenhouse and watered daily until treatment. Three days after transplant, the compounds were dissolved in acetone and then diluted with water for a final concentration of 50% acetone. Treatments were applied as a drench in 1 ml solution per plant. Plants were held in an environmental chamber (25±2° C., 24 L) and watered as needed for the duration of the test.
Three days after treatment, plants were infested with five 2nd instar nymphs. Plants were 15 covered with organza fabric bags to prevent escape. Four days after infestation, the number of live nymphs on each plant was recorded, and means were calculated for each treatment. The percent control was calculated as the percent mortality relative to the solvent blank.

As to `N#CCCn1c(=O)c(-c2ccc(F)cc2)c([O-])[n+]2ccccc12` [Compound C-9], in the data set with Euschistus heros, the “efficacy on soybean with Bacillus thuringiensis toxin trait (INTACTA) versus soybean without the trait (BMX-POTENCIA)” value is “higher efficacy” and the “mortality (corrected according to Abbott)” value was 70%.

Take `Cc1cccc(-c2c([O-])[n+]3ccccc3n(CCC#N)c2=O)c1` [Compound C-6]: the “mortality in comparison with untreated controls” value in the data set with Halyomorpha halys is “at least 75%”.

For `N#CCCn1c(=O)c(-c2cc(C3CC3)cc(C(F)(F)F)c2)c([O-])[n+]2ccccc12` [Compound C-8], in the data set on Euschistus heros, the “efficacy on soybean with Bacillus thuringiensis toxin trait (INTACTA) versus soybean without the trait (BMX-POTENCIA)” value is “higher efficacy” and the “mortality (corrected according to Abbott)” value is recorded as 68%. Moreover, the “mortality in comparison with untreated controls (percent control relative to the solvent blank)” value in the data set on Nezara viridula was “at least 75%”.

Values taken from US20200397001A1, “CONTROL OF PESTS OF SOYBEAN PLANTS WITH MESOIONIC COMPOUNDS” (BASF SE, priority 2018, published 2020).
